# Results from article PMC11432454, “An Ingenane-Type Diterpene from Euphorbia kansui Promoted Cell Apoptosis and Macrophage Polarization via the Regulation of PKC Signaling Pathways” (International Journal of Molecular Sciences, 2024).
# Like-named read-outs stand apart in the source and are kept apart here.
# What was measured:
# HepG2 cells [1] = assay: MTT assay, cell viability of HepG2 cells; format: cell-based; settings: Homo sapiens
# Procedure: (§1) 8 × 10^4 cells/well were incubated in 96T wells for 24 h, and the cells were treated with a drug-containing medium for a specified time. Cells were added 20 μL 0.5% MTT (Sigma, USA) to each well, continued to incubate at 37 °C for 3.5 h, then the medium was discarded and 150 μL of DMSO was added to each well to dissolve the purple formazan. The cells were shaken for 15 min at room temperature and read at 490 nm. Cell viability (%) = ([…])/(ODcontrol − ODblank) × 100%. IC50 (half maximal inhibitory concentration) was calculated by SPSS 27.0 software.
# [2] = tested on: iNOS, COX2, NO, IL-1β, IL-6 in LPS-stimulated RAW264.7 cells; assay: Inflammatory mediators in LPS-stimulated RAW264.7 cells (Western blot, ELISA, immunofluorescence); format: cell-based, mouse; settings: LPS (1 μg·mL^−1)-stimulated RAW264.7, 10 and 5 μmol·L^−1, 24 h
# Procedure: Mouse macrophage cell line RAW264.7 was incubated in a DMEM medium (Gibco, Carlsabad, CA, USA) supplemented with 10% fetal bovine serum (FBS, Gibco), 10,000 U/mL penicillin, and 10,000 μg/mL streptomycin. RAW264.7 cells were treated with 1 μg/mL Lipopolysaccharide (LPS, Sigma, Saint Louis, MO, USA, 12181202) to promote the polarization of macrophages towards M1 or 20 ng/mL interleukin 4 (IL-4, Beyotime, Shanghai, China) to promote the polarization of macrophages towards M2. […]
# The isolates were evaluated for their inhibitory effect on NO production in LPS-induced RAW264.7 cells. […] NO was evaluated by absorbance-based detection on nitrite accumulated in the culture medium. The levels of cytokines (IL-1β, IFN-γ, IL-10, TNF-α, and IL-6) in the cell supernatant were determined using an ELISA kit (Novus Biologicals, Centennial, CO, USA) according to the manufacturer’s instructions. The absorbance was read at OD450nm/OD540nm in SpectraMax340PC microplate spectrophotometer (Molecular Devices, San Jose, CA, USA).
# Protein samples were prepared using a RIPA lysis buffer. The concentration of the protein was analyzed using nucleic acid and protein microanalyzer (Molecular Devices, San Jose, CA, USA). […] The protein bands were detected by the ECL and were exposed to the TANON gel imager (Shanghai, China). The results were analyzed by Image J 180 software.
# [3] = tested on: PKC δ and ERK in HepG2 cells; assay: Western blotting of PKC δ and ERK expression and phosphorylation in HepG2 cells; format: cell-based, human
# Procedure: (§2) Protein samples were prepared using a RIPA lysis buffer. The concentration of the protein was analyzed using nucleic acid and protein microanalyzer (Molecular Devices, San Jose, CA, USA). SDS-PAGE gel electrophoresis was performed to separate the proteins, which then were electro-transferred onto a PVDF membrane. The membranes were blocked with 5% non-fat milk for 2 h and incubated with primary antibodies and secondary antibodies. The protein bands were detected by the ECL and were exposed to the TANON gel imager (Shanghai, China). The results were analyzed by Image J 180 software.
# [4] = tested on: HepG2 and RAW264.7 cell co-cultivations; assay: Annexin V/PI flow cytometry, HepG2 and RAW264.7 co-cultivation; format: cell-based; settings: 48 h, compared with the HepG2 cell group
# Procedure: (§3) Cells with the relevant surface antibodies were incubated at 4 °C for 30 min without light. The stained cells were incubated with Annexin V/PI kits from BD. The experiment was conducted according to the instructions. Data were analyzed on FlowJo V10 software.
# [5] = tested on: Bax, cleaved caspase 3, cleaved caspase 8 in HepG2 cells; assay: Western blotting of apoptosis-related proteins in HepG2 cells; format: cell-based, human; settings: 12.5 or 25 μmol·L^−1
# Procedure: as §2
# [6] = tested on: PKC δ, ERK, and NF-κB in LPS-stimulated RAW264.7 cells; assay: Western blotting of PKC δ, ERK, NF-κB in LPS-stimulated RAW264.7 cells; format: cell-based, mouse; settings: for level of PKC δ protein / phosphorylation of PKC δ, ERK, and NF-κB: LPS-stimulated RAW264.7, 24 h; for phosphorylation of PKC δ, ERK, and NF-κB: compared to the LPS group, BIS 150 nmol·L^−1
# Procedure: (§4) Mouse macrophage cell line RAW264.7 was incubated in a DMEM medium (Gibco, Carlsabad, CA, USA) supplemented with 10% fetal bovine serum (FBS, Gibco), 10,000 U/mL penicillin, and 10,000 μg/mL streptomycin. RAW264.7 cells were treated with 1 μg/mL Lipopolysaccharide (LPS, Sigma, Saint Louis, MO, USA, 12181202) to promote the polarization of macrophages towards M1 or 20 ng/mL interleukin 4 (IL-4, Beyotime, Shanghai, China) to promote the polarization of macrophages towards M2.
# as §2
# In order to investigate the effects of PKC activation on the effects of drug treatment, 150 nmoL/L bisindolylmaleimide (BIS) was used. BIS (Beyotime, Shanghai, China) is a potent inhibitor of PKC α/β/γ and PKC δ/ε. This agent was stored at −80 °C in DMSO and cells were pre-incubated with the inhibitor for 4 h prior to being treated with compound A.
# [7] = MTT assay, cell viability of RAW264.7 cells; format: cell-based; settings: mouse, RAW264.7 macrophage cells; half inhibitory of RAW264.7 cells, cell survival, n = 3
# Procedure: as §4, §1
# A549 cells = assay: MTT assay, cell viability of A549 cells; format: cell-based; settings: Homo sapiens, A549, read-out: A549 IC50
# Procedure: as §1
# [8] = tested on: PKC δ, ERK, STAT3, STAT6, ARG-1, CD163, TGF-β, CD206 in IL-4-stimulated RAW264.7 cells; assay: M2 polarization markers in IL-4-stimulated RAW264.7 cells (Western blot, immunofluorescence); format: cell-based, mouse
# Procedure: as §4
# RAW264.7 cells were fixed with 500 μL/well 4% paraformaldehyde for 20 min at room temperature, washed with 1 mL/well PBS five times, then incubated with anti-iNOS, anti-COX-2, or anti-CD206 antibodies at 4 °C overnight, separately. The cells were washed with 1 mL/well PBS five times, then treated with the secondary antibody (FITC-Goat anti-rabbit IgG antibody, 1:200-fold dilution) and DPAI (100 μL/well). […] The stained images were captured under a laser scanning confocal microscope (Nikon A1 AIR MP+, Tokyo, Japan).
# as §2
# [9] = tested on: NO production in LPS-stimulated RAW264.7 cells; assay: cells; format: cell-based; settings: Mus musculus
# Procedure: as §4
# (§5) The isolates were evaluated for their inhibitory effect on NO production in LPS-induced RAW264.7 cells. The iNOS inhibitor ([…], L-NMMA) was selected as the positive control. NO was evaluated by absorbance-based detection on nitrite accumulated in the culture medium. The levels of cytokines (IL-1β, IFN-γ, IL-10, TNF-α, and IL-6) in the cell supernatant were determined using an ELISA kit (Novus Biologicals, Centennial, CO, USA) according to the manufacturer’s instructions. The absorbance was read at OD450nm/OD540nm in SpectraMax340PC microplate spectrophotometer (Molecular Devices, San Jose, CA, USA).
# HepG2 cells [10] = assay: Annexin V/PI flow cytometry, apoptosis of HepG2 cells; format: cell-based, human; settings: 12.5 μmol·L^−1 or 25 μmol·L^−1
# Procedure: as §3
# MCF-7 cells = assay: MTT assay, cell viability of MCF-7 cells; format: cell-based; settings: Homo sapiens, MCF7, read-out: MCF-7 IC50
# Procedure: as §1
# [11] = tested on: Bax, cleaved caspase 3 and 8, IL-6, ARG-1, CD206, COX2 in HepG2 and RAW264.7 cell co-cultivations; assay: Western blotting and ELISA in HepG2 and RAW264.7 co-cultivation; format: cell-based
# Procedure: as §5, §2
# [12] = IL-4 (20 ng/mL)-stimulated RAW264.7, 10 μmol·L^−1, 0–60 min
# [13] = compared with HepG2 cell group and co-cultivation group
compound,measurement,setting,value
"COc1cccc2c1C(=O)c1c(O)c3c(c(O)c1C2=O)C[C@@](O)(C(=O)CO)C[C@@H]3O[C@H]1C[C@H](N)[C@H](O)[C@H](C)O1 [Adr, adriamycin, reference compound]",IC50,"HepG2 cells [1]; HepG2, cell viability, MTT, n = 3, read-out: HepG2 IC50",4.37 ± 1.21 µM
"CCCCCCCCCCCC(=O)OC12CC(C)C34C=C(C)C(OC(=O)C(C)C(C)C)C3(O)C(O)C(CO)=CC(C4=O)C1C2(C)C (centres unmarked) [Compound A, 13-hydroxyingenol-3-(2,3-dimethylbutanoate)-13-dodecanoate]",COX2 expression,[2],increased
same,"expression of iNOS and production of cytokines (NO, IL-1β, IL-6)",[2],decrease
same,time of highest level of phosphorylation of PKC δ,"[3]; treated 0, 10, 20, 40, 60 min",10 to 20 min
same,expression of PKC δ,[3]; versus control group,decreased
same,phosphorylation of PKC δ (p-PKC δ) and ERK (p-ERK),[3]; versus control group,downregulated
same,apoptosis rates,[4],upregulated
same,"expression of Bax, cleaved caspase 3, and cleaved caspase 8",[5],increased
same,IC50,"HepG2 cells [1]; HepG2, read-out: HepG2 IC50",21 ± 4.53 µM
same,"time of highest point of phosphorylation of PKC δ, ERK, and NF-κB","[6]; LPS (1 μg·mL^−1)-stimulated RAW264.7, compound A 10 μmol·L^−1, 0-60 min",20 to 30 min
same,level of PKC δ protein,[6],decreased
same,"phosphorylation of PKC δ, ERK, and NF-κB",[6],significantly reduced
same,CC50,[7],20.3 ± 3.62 µM
same,IC50,A549 cells,22 ± 5.01 µM
same,PKC δ and ERK activation,[8]; [12],promote
same,STAT6 phosphorylation,[8]; [12],inhibited
same,activation of STAT3 and STAT6,"[8]; IL-4-stimulated RAW264.7, co-treatment 24 h",inhibited
same,"expression of ARG-1, CD163, TGF-β, and CD206",[8]; IL-4-stimulated RAW264.7 cells,downregulated
same,IC50,"[9]; LPS-stimulated RAW264.7 cells, n = 3, read-out: RAW264.7 IC50 (inhibition of nitric oxide production)",0.57 ± 0.07 µM
same,apoptosis in HepG2 cells,HepG2 cells [10],significantly induced apoptosis
same,IC50,MCF-7 cells,27.1 ± 3.34 µM
same,"level of Bax, and cleaved caspase 3 and 8","[11]; 10 μmol·L^−1, 48 h",significantly increase
same,COX2 expression,[11]; [13],increased
same,expression of ARG-1 and CD206,[11]; [13],decreased
same,level of IL-6,[11]; [13],decreased
"[H]/N=C(/NC)NCCC[C@H](N)C(=O)O [l-NMMA, NG-monnomycin-l-arginine, reference compound]",CC50,[7],> 50 µM
same,IC50,"[9]; RAW264.7, read-out: RAW264.7 IC50 (inhibition of nitric oxide production)",21.8 ± 3.21 µM
bisindolylmaleimide [reference compound],level of PKC δ protein,[6],did not
same,"phosphorylation of PKC δ, ERK, and NF-κB",[6],significantly reduced
